Test results: publication PMC11892739, “Site-specific molecular glues for the 14-3-3/Tau pS214 protein–protein interaction via reversible covalent imine tethering” (RSC Medicinal Chemistry, 2025)

Target: T1, 14-3-3ζ/Rubic peptide (Homo sapiens, UniProt P63104)
T1 construct: made in house; host or cells: NiCo21 (DE3) E. coli
Assay: FA peptide screen, 14-3-3ζ titration to client peptide and compound: Rubic
Type: binding
Details: 250 μM compound, 100 nM peptide; +1 Phe
Procedure: Since the hub protein 14-3-3 binds to hundreds of phosphoprotein partners, selectivity of PPI stabilization is a major challenge. The interplay of chemical reactivity, and the topology and functionality of the composite binding pocket shaped by 14-3-3 and Tau potentially provide entries towards selective stabilization. […] Here, 14-3-3ζ was titrated to a constant concentration of client peptide (100 nM) and compound (250 μM) to determine the SF250μM values for the particular 14-3-3 PPI. A variety of 14-3-3 binding proteins was represented in this client panel whereby the size and hydrophobicity of the +1 amino acid were varied. […]
chromatography (HisTrap high performance cartridges, Cytiva). Typically two 5 mL columns were used for a 2 L culture in which the lysate was loaded on the column, washed with 10 CV wash buffer (50 mM Hepes, pH 8.0, 300 mM NaCl, 25 mM imidazole, 2 mM βME), and eluted with several fractions (2-4 CV) of elution buffer (50 mM Hepes, pH 8.0, 300 mM NaCl, 250 mM imidazole, 2 mM βME). […] Dialyzed protein was concentrated to ∼40 mg/mL, analyzed by Q -Tof LC/MS, and aliquots were flash -frozen for storage at −80 °C. […] Fractions containing the 14 -3-3 protein were pooled and concentrated to ∼60 mg/mL, analyzed Q -Tof LC/MS, and aliquots were flash -frozen for storage at −80°C.
Fluorescence Anisotropy – compound titration […]

T1 sequence (P63104 whole entry, other chains not shown): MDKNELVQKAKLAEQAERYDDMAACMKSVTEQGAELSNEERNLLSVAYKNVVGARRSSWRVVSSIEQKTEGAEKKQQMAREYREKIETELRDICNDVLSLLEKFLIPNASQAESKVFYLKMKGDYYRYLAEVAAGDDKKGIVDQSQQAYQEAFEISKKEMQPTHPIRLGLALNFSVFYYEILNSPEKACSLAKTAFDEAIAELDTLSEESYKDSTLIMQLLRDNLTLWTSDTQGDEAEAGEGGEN

- stabilization of 14-3-3/Rubic peptide (in words): no significant stabilization
Structure (SMILES): CCc1ccc(-c2nccn2-c2ccc(C=O)c(Br)c2)cc1 [Compound 18]
